Measured values from patent US8192962B2, “Processes for detecting toxic substances” (Daikin Industries, Ltd., priority 2001, dated 2012).

Test system: Mitochondria-located protein genes
Experiment: DNA chip mRNA expression in yeast, mitochondria-located protein genes (Table 2)
Assay type: cell-based, Saccharomyces cerevisiae S288C
Settings: cells incubated two hours with the chemical substance
Outline: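 Chemical exposure: 2 h, log-phase S. cerevisiae S288C, YPD, 25° C., dose set to inhibit growth without death. Profiling: mRNA labeled by reverse transcription with Cy3- or Cy5-dUTP, hybridized to whole-genome array. Output: fluorescence ratio against untreated culture.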

SMILES: CN(C)C(=S)SSC(=S)N(C)C [(10), Tetramethylthiuram disulfide]
- The level of expressed mRNA in the presence of chemical substance/The level of expressed mRNA in the absence of chemical substance (yeast gene YJR121W): 1.3
- The level of expressed mRNA in the presence of chemical substance/The level of expressed mRNA in the absence of chemical substance (yeast gene YKL003C): 2.2
- The level of expressed mRNA in the presence of chemical substance/The level of expressed mRNA in the absence of chemical substance (yeast gene YKL016C): 1.8
- The level of expressed mRNA in the presence of chemical substance/The level of expressed mRNA in the absence of chemical substance (yeast gene YKL141W): 0.5
- The level of expressed mRNA in the presence of chemical substance/The level of expressed mRNA in the absence of chemical substance (yeast gene YKL142W): 5.9
- The level of expressed mRNA in the presence of chemical substance/The level of expressed mRNA in the absence of chemical substance (yeast gene YKL148C): 1.7
- The level of expressed mRNA in the presence of chemical substance/The level of expressed mRNA in the absence of chemical substance (yeast gene YKL170W): 1.1
- The level of expressed mRNA in the presence of chemical substance/The level of expressed mRNA in the absence of chemical substance (yeast gene YKL194C): 1.4
- The level of expressed mRNA in the presence of chemical substance/The level of expressed mRNA in the absence of chemical substance (yeast gene YKR066C): 2.4
- The level of expressed mRNA in the presence of chemical substance/The level of expressed mRNA in the absence of chemical substance (yeast gene YLL041C): 0.8
- The level of expressed mRNA in the presence of chemical substance/The level of expressed mRNA in the absence of chemical substance (yeast gene YLR038C): 0.9
- The level of expressed mRNA in the presence of chemical substance/The level of expressed mRNA in the absence of chemical substance (yeast gene YLR259C): 2.6
- The level of expressed mRNA in the presence of chemical substance/The level of expressed mRNA in the absence of chemical substance (yeast gene YLR295C): 1.2
- The level of expressed mRNA in the presence of chemical substance/The level of expressed mRNA in the absence of chemical substance (yeast gene YLR304C): 2.2
- The level of expressed mRNA in the presence of chemical substance/The level of expressed mRNA in the absence of chemical substance (yeast gene YLR348C): 1.3
- The level of expressed mRNA in the presence of chemical substance/The level of expressed mRNA in the absence of chemical substance (yeast gene YLR395C): 0.9
- The level of expressed mRNA in the presence of chemical substance/The level of expressed mRNA in the absence of chemical substance (yeast gene YML054C): 1.8
- The level of expressed mRNA in the presence of chemical substance/The level of expressed mRNA in the absence of chemical substance (yeast gene YML120C): 1.5
- The level of expressed mRNA in the presence of chemical substance/The level of expressed mRNA in the absence of chemical substance (yeast gene YML129C): 2.2
- The level of expressed mRNA in the presence of chemical substance/The level of expressed mRNA in the absence of chemical substance (yeast gene YMR023C): 2.6
- The level of expressed mRNA in the presence of chemical substance/The level of expressed mRNA in the absence of chemical substance (yeast gene YMR035W): 1.6
- The level of expressed mRNA in the presence of chemical substance/The level of expressed mRNA in the absence of chemical substance (yeast gene YMR083W): 1.1
- The level of expressed mRNA in the presence of chemical substance/The level of expressed mRNA in the absence of chemical substance (yeast gene YMR089C): 2.5
- The level of expressed mRNA in the presence of chemical substance/The level of expressed mRNA in the absence of chemical substance (yeast gene YMR152W): 1.3
- The level of expressed mRNA in the presence of chemical substance/The level of expressed mRNA in the absence of chemical substance (yeast gene YMR203W): 1.2
- The level of expressed mRNA in the presence of chemical substance/The level of expressed mRNA in the absence of chemical substance (yeast gene YMR267W): 0.8
- The level of expressed mRNA in the presence of chemical substance/The level of expressed mRNA in the absence of chemical substance (yeast gene YNL055C): 1.0
- The level of expressed mRNA in the presence of chemical substance/The level of expressed mRNA in the absence of chemical substance (yeast gene YNL071W): 1.2
- The level of expressed mRNA in the presence of chemical substance/The level of expressed mRNA in the absence of chemical substance (yeast gene YNL073W): 1.8
- The level of expressed mRNA in the presence of chemical substance/The level of expressed mRNA in the absence of chemical substance (yeast gene YNL104C): 2.0
- The level of expressed mRNA in the presence of chemical substance/The level of expressed mRNA in the absence of chemical substance (yeast gene YNL256W): 0.6
- The level of expressed mRNA in the presence of chemical substance/The level of expressed mRNA in the absence of chemical substance (yeast gene YOL096C): 1.4
- The level of expressed mRNA in the presence of chemical substance/The level of expressed mRNA in the absence of chemical substance (yeast gene YOR020C): 2.6
- The level of expressed mRNA in the presence of chemical substance/The level of expressed mRNA in the absence of chemical substance (yeast gene YOR037W): 1.0
- The level of expressed mRNA in the presence of chemical substance/The level of expressed mRNA in the absence of chemical substance (yeast gene YOR100C): 2.6
- The level of expressed mRNA in the presence of chemical substance/The level of expressed mRNA in the absence of chemical substance (yeast gene YOR130C): 1.7
- The level of expressed mRNA in the presence of chemical substance/The level of expressed mRNA in the absence of chemical substance (yeast gene YOR142W): 1.5
- The level of expressed mRNA in the presence of chemical substance/The level of expressed mRNA in the absence of chemical substance (yeast gene YOR150W): 1.8
- The level of expressed mRNA in the presence of chemical substance/The level of expressed mRNA in the absence of chemical substance (yeast gene YOR176W): 0.5
- The level of expressed mRNA in the presence of chemical substance/The level of expressed mRNA in the absence of chemical substance (yeast gene YOR187W): 0.8
- The level of expressed mRNA in the presence of chemical substance/The level of expressed mRNA in the absence of chemical substance (yeast gene YOR316C): 2.0
- The level of expressed mRNA in the presence of chemical substance/The level of expressed mRNA in the absence of chemical substance (yeast gene YPL040C): 1.2
- The level of expressed mRNA in the presence of chemical substance/The level of expressed mRNA in the absence of chemical substance (yeast gene YPL134C): 0.8
- The level of expressed mRNA in the presence of chemical substance/The level of expressed mRNA in the absence of chemical substance (yeast gene YPL135W): 2.8
- The level of expressed mRNA in the presence of chemical substance/The level of expressed mRNA in the absence of chemical substance (yeast gene YPL215W): 1.2
- The level of expressed mRNA in the presence of chemical substance/The level of expressed mRNA in the absence of chemical substance (yeast gene YPL262W): 5.8
- The level of expressed mRNA in the presence of chemical substance/The level of expressed mRNA in the absence of chemical substance (yeast gene YPR024W): 1.7
- The level of expressed mRNA in the presence of chemical substance/The level of expressed mRNA in the absence of chemical substance (yeast gene YPR037C): 1.3
- The level of expressed mRNA in the presence of chemical substance/The level of expressed mRNA in the absence of chemical substance (yeast gene YPR047W): 1.9
- The level of expressed mRNA in the presence of chemical substance/The level of expressed mRNA in the absence of chemical substance (yeast gene YPR134W): 2.3
